We go through five compounds from ChEMBL document CHEMBL1909046, “DrugMatrix in vitro pharmacology data”.

SMILES strings stand for the structures.

Broadly, the IC50 is the concentration that inhibits the measured activity by half. By Ki is commonly meant the dissociation constant of the complex between target and ligand, obtained from inhibition or displacement.

Data set [1] concerns the target T1, C-C chemokine receptor type 4 (Homo sapiens, UniProt P51679). Note: in other assays of this panel Not Active means under 50% inhibition at 10 µM.
T1 sequence (P51679 whole entry): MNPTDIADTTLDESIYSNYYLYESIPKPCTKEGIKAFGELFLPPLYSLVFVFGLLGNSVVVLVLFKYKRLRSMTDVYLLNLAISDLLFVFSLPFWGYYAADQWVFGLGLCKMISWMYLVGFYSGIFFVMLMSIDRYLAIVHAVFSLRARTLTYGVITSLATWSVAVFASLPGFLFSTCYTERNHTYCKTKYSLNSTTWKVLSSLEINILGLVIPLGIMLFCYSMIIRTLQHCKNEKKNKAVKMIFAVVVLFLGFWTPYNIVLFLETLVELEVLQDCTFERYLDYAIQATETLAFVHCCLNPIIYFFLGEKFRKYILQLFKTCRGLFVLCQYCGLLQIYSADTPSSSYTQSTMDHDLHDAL
The data set is classed as cell membranes, Membrane. The conditions noted are these: chem-1.

The target in data set [2] is Sodium-dependent dopamine transporter (Homo sapiens, UniProt Q01959). Briefly: DRUGMATRIX: Dopamine Transporter radioligand binding (ligand: [125I] RTI-55). The conditions noted are these: Not Active = under 50% inhibition at 10 µM. It is filed as cell membranes, CHO-K1, Membrane.
Data set [3] concerns the target Histamine H2 receptor (Homo sapiens, UniProt P25021). It is filed as cell membranes, CHO-K1, Membrane. The conditions noted are these: cho-k1. Note: in other assays of this panel Not Active means under 50% inhibition at 10 µM.
The nature of data set [4]: DRUGMATRIX: Purinergic P2X radioligand binding (ligand: [3H] alpha, beta-Methylene-ATP). The data set is classed as cell membranes, Oryctolagus cuniculus, New Zealand albino, Urinary bladder, Membrane. The note with it: Not Active = under 50% inhibition at 10 µM.
The target in data set [5] is T2, Muscarinic acetylcholine receptor M4 (Homo sapiens, UniProt P08173). Note: in other assays of this panel Not Active means under 50% inhibition at 10 µM.
T2 sequence (P08173 whole entry): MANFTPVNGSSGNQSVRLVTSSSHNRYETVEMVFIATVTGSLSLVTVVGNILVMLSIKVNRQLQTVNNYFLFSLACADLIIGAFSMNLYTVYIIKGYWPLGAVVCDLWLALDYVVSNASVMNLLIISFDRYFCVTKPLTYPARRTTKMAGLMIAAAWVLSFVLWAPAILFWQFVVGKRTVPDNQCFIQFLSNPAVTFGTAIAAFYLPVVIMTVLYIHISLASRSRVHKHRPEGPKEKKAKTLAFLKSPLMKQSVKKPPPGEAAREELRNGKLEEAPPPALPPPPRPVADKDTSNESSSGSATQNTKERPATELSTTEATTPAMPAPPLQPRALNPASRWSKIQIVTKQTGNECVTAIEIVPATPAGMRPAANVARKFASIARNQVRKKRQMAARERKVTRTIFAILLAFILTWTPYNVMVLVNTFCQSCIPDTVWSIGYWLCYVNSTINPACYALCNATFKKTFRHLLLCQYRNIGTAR
It is filed as cell membranes, CHO-K1, Membrane. The note with it: cho-k1.

A short description of data set [6]: DRUGMATRIX: Glutamate, NMDA, Phencyclidine radioligand binding (ligand: [3H] TCP). The data set is classed as cell membranes, Rattus norvegicus, Wistar, Cerebral cortex, Membrane. The conditions noted are these: Not Active = under 50% inhibition at 10 µM.
Data set [7] has as its target C-C chemokine receptor type 2 (Homo sapiens, UniProt P41597). It is filed as cell membranes, CHO-K1, Membrane. The note with it: cho-k1. Note: in other assays of this panel Not Active means under 50% inhibition at 10 µM.
Data set [8] in a line: DRUGMATRIX: Phosphodiesterase PDE3 enzyme inhibition (substrate: [3H]cAMP + cAMP). It is filed as tissue-based, Homo sapiens. The conditions noted are these: platelet; Not Active = under 50% inhibition at 10 µM.
For data set [9], the target named is 5-hydroxytryptamine receptor 4 (Cavia porcellus, UniProt O70528). The data set is classed as cell membranes, Dunkin-Hartley, Striatum, Membrane. Note: in other assays of this panel Not Active means under 50% inhibition at 10 µM.
Data set [10] has as its target Tyrosine-protein kinase Fyn (Homo sapiens, UniProt P06241). Briefly: biochemical. The conditions noted are these: insect cells. It is filed as cell-based, Insect cells.
The target in data set [11] is Beta-3 adrenergic receptor (Homo sapiens, UniProt P13945). As to the kind of experiment: DRUGMATRIX: Adrenergic beta3 radioligand binding (ligand: [125I] Cyanopindolol). The note with it: hek293; Not Active = under 50% inhibition at 10 µM. The data set is classed as cell membranes, HEK293, Membrane.
Data set [12] addresses Cytochrome P450 2C19 (Homo sapiens, UniProt P33261). The note with it: bti-tn-5b1-4.
Data set [13] is described as follows: DRUGMATRIX: Sigma2 radioligand binding (ligand: [3H] Ifenprodil). The data set is classed as cell membranes, Rattus norvegicus, Wistar, Brain, Membrane. The conditions noted are these: Not Active = under 50% inhibition at 10 µM.
The target in data set [14] is T3, Substance-K receptor (Homo sapiens, UniProt P21452). Note: in other assays of this panel Not Active means under 50% inhibition at 10 µM.
T3 sequence (P21452 whole entry): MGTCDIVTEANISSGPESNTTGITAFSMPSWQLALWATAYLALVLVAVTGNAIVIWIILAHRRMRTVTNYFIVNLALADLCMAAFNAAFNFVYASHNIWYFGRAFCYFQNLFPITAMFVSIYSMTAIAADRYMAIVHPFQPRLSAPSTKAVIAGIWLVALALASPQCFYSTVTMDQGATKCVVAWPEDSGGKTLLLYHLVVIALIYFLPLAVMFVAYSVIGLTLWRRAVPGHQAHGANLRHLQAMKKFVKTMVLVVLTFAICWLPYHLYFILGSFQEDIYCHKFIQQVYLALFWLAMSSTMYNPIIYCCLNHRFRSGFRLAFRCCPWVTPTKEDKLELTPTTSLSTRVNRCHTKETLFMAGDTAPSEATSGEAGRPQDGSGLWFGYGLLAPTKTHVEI
The data set is classed as cell membranes, CHO, Membrane. The note with it: cho.

Data set [15] deals with T4, D(4) dopamine receptor (Homo sapiens, UniProt P21917).
T4 sequence (P21917 whole entry): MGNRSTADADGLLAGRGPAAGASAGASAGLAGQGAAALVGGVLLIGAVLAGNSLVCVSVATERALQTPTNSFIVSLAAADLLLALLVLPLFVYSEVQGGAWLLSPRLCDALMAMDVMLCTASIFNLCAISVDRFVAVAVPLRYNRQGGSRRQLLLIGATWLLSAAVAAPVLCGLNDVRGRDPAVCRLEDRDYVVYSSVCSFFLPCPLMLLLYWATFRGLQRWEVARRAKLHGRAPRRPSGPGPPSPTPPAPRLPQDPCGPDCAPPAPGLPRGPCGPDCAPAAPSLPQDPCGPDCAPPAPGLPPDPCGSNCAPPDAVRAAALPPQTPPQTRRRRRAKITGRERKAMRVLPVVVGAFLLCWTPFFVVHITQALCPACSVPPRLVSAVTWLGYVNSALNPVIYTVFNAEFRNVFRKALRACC
As to the kind of experiment: DRUGMATRIX: Dopamine D4.2 radioligand binding (ligand: [3H] Spiperone). The data set is classed as cell membranes, CHO-K1, Membrane. The conditions noted are these: cho-k1; Not Active = under 50% inhibition at 10 µM.

The target of data set [16] is T5, Leukotriene C4 synthase (Cavia porcellus, UniProt A6XA80).
T5 sequence (A6XA80 whole entry): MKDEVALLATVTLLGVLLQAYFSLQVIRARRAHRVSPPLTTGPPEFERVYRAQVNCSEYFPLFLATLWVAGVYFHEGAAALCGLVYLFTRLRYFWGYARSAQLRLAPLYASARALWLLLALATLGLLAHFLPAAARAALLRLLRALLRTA
As to the kind of experiment: biochemical. The data set is classed as tissue-based, Lung.

Data set [17] can be described thus: DRUGMATRIX: Glutamate, Kainate radioligand binding (ligand: [3H] Kainic acid). The data set is classed as cell membranes, Rattus norvegicus, Wistar, Brain, Membrane. The note with it: Not Active = under 50% inhibition at 10 µM.

Sequence of Cytochrome P450 2C19 (P33261 whole entry): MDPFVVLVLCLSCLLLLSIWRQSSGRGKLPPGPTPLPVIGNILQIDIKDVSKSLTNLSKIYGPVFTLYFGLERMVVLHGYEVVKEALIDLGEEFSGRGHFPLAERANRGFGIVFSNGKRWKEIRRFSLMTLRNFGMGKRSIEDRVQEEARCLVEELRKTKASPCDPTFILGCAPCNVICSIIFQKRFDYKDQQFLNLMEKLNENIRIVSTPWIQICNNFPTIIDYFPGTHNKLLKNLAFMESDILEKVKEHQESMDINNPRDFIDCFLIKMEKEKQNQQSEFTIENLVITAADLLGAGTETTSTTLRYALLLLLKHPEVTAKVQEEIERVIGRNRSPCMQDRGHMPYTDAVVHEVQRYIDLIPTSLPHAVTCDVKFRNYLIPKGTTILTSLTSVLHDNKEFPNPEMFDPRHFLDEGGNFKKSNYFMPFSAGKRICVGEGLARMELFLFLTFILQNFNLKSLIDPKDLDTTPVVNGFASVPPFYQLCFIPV
Sequence of 5-hydroxytryptamine receptor 4 (O70528 whole entry): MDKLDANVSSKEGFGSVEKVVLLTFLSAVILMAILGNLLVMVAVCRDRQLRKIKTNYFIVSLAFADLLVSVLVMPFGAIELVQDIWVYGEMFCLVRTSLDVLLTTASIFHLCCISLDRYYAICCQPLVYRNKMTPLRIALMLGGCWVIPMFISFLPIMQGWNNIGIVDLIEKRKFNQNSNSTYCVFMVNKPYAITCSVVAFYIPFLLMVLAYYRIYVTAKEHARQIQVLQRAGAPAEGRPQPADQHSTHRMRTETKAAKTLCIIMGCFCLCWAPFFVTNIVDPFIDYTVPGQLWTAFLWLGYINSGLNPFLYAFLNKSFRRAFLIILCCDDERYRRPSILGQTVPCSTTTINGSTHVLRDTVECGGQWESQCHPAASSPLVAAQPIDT
Sequence of C-C chemokine receptor type 2 (P41597 whole entry): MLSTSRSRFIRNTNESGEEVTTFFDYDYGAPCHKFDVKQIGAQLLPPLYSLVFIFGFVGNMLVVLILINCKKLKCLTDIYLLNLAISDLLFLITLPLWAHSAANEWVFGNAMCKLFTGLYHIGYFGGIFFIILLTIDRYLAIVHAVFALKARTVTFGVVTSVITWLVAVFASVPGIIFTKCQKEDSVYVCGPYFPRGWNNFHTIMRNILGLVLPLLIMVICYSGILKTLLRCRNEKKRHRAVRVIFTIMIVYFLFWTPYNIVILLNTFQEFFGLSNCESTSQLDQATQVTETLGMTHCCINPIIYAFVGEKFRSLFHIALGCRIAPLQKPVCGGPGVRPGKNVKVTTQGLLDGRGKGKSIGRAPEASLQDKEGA
Sequence of Beta-3 adrenergic receptor (P13945 whole entry): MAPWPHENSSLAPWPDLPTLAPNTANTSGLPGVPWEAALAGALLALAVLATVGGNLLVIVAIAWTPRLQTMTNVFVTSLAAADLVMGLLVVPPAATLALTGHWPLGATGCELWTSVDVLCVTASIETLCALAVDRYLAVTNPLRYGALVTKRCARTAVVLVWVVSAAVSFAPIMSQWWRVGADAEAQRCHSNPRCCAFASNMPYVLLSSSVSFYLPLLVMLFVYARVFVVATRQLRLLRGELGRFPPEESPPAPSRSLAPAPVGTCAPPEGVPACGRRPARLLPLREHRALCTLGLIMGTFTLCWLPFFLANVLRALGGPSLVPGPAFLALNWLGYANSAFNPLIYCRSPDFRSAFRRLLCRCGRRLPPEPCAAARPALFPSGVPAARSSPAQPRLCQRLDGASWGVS
Sequence of Tyrosine-protein kinase Fyn (P06241 whole entry): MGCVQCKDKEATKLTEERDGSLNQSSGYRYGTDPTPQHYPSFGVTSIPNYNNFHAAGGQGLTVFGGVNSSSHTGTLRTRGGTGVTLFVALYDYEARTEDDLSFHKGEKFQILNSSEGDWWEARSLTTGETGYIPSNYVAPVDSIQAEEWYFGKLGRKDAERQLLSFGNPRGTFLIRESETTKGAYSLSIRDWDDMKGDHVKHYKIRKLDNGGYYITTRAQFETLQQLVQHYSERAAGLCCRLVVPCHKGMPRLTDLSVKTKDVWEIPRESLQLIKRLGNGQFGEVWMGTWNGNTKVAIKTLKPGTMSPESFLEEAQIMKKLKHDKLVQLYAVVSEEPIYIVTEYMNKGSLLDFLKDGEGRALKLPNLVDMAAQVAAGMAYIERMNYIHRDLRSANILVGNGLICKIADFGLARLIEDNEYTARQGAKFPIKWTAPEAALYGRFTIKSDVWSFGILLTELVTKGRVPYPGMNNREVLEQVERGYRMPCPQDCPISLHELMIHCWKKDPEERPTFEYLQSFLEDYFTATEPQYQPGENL
Sequence of Histamine H2 receptor (P25021 whole entry): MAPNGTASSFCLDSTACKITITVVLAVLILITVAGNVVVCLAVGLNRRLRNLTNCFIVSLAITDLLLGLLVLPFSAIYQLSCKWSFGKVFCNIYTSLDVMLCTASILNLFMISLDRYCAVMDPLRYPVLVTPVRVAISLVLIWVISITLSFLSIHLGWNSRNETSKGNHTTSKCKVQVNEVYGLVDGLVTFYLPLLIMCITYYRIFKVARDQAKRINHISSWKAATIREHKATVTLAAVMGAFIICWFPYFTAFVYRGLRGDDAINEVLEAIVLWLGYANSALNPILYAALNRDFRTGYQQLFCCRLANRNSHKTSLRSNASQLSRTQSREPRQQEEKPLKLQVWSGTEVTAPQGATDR
Sequence of Sodium-dependent dopamine transporter (Q01959 whole entry): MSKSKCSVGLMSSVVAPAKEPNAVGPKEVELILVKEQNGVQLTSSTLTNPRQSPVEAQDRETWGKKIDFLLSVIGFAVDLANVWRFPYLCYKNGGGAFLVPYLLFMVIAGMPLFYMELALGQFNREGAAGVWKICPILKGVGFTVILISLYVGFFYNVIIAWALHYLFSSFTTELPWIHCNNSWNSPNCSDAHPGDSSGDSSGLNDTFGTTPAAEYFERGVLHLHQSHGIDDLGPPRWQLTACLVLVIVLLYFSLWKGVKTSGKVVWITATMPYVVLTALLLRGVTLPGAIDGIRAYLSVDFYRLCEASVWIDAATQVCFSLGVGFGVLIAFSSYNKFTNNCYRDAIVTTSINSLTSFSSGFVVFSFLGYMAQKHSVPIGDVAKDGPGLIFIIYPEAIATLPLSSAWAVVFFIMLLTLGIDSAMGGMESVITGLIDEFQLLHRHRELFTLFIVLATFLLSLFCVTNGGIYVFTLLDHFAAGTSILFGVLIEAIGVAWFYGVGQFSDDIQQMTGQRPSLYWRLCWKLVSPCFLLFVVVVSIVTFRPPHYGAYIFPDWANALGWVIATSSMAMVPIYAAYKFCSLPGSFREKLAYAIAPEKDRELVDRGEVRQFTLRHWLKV

As to `CNC(=O)Oc1ccc2c(c1)[C@]1(C)CCN(C)[C@@H]1N2C` [PHYSOSTIGMINE], the IC50 entry in data set [1], in data set [2] (cho-k1), in data set [3], in data set [4], in [5] and in data set [6] was “Not Active” each time. In addition, the IC50 entry in [7], in data set [8], in [9], in data set [10], in [11] and in data set [12] was “Not Active” each time. Also, the IC50 result in data set [13], in data set [14], in data set [15], in data set [16] and in data set [17] was “Not Active” throughout. For the same compound, the Ki result in data set [4], in data set [6], in [8], in data set [12], in data set [13] and in data set [17] was “Not Active” each time.
In the case of `CN1C(C(=O)Nc2ccccn2)=C(O)c2ccccc2S1(=O)=O` [PIROXICAM], the IC50 entry in [1], in [2] (cho-k1), in data set [3], in data set [4], in data set [5] and in [6] was “Not Active” in each case. Further, the IC50 result in data set [7], in data set [8], in [9], in [10], in [11] and in data set [12] was “Not Active” each time. Besides, the IC50 entry in [13], in data set [14], in data set [15], in [16] and in data set [17] was “Not Active” in each case. The inhibitory constant (Ki) entry in [4], in data set [6], in data set [8], in data set [12], in data set [13] and in [17] was “Not Active” throughout.
Turning to `CCC1(c2ccccc2)C(=O)NCNC1=O` [PRIMIDONE], the IC50 entry in data set [1], in data set [2] (cho-k1), in data set [3], in data set [4], in [5] and in data set [6] was “Not Active” in each case. The concentration for half-maximal inhibition (IC50) result in [7], in data set [8], in data set [9], in [10], in [11] and in data set [12] was “Not Active” throughout. In addition, the IC50 entry in data set [13], in data set [14], in [15], in [16] and in data set [17] was “Not Active” each time. Besides, the inhibition constant (Ki) result in data set [4], in [6], in [8], in data set [12], in [13] and in [17] was “Not Active” each time.
As to `CCCc1cc(=O)[nH]c(=S)[nH]1` [PROPYLTHIOURACIL], the IC50 entry in data set [1], in data set [2] (cho-k1), in data set [3], in data set [4], in data set [5] and in data set [6] was “Not Active” each time. The IC50 entry in [7], in data set [8], in data set [9], in data set [10], in data set [11] and in [12] was “Not Active” in each case. For the same compound, the IC50 entry in [13], in data set [14], in data set [15], in [16] and in data set [17] was “Not Active” throughout. Further, the Ki result in data set [4], in data set [6], in data set [8], in [12], in data set [13] and in data set [17] was “Not Active” in each case.
For the compound `COc1ccc(CN(CCN(C)C)c2ccccn2)cc1` [PYRILAMINE], the IC50 result in [1] is “Not Active”; in [2] (read-out: IC50) it was 879 nM; in data set [3] it was “Not Active”; in [4], “Not Active”; in data set [5], “Not Active”; in data set [6] it was “Not Active”. In addition, the IC50 result in [7], in [8], in data set [9], in data set [10], in data set [11] and in data set [12] was “Not Active” throughout. The IC50 result in data set [13], in data set [14], in data set [15], in [16] and in [17] was “Not Active” each time. For the same compound, the Ki in data set [2] (read-out: Ki) was 699 nM; in data set [4], “Not Active”; in data set [6] it was “Not Active”; in data set [8], “Not Active”; in data set [12] it was “Not Active”; in data set [13] it was “Not Active”. For the same compound, the inhibition constant (Ki) entry in [17] is “Not Active”.
